# Test results reported in publication PMC10394516, “The pharmacokinetic profile of brensocatib and its effect on pharmacodynamic biomarkers including NE, PR3, and CatG in various rodent species” (Frontiers in Pharmacology, 2023).
# What was measured:
# Format in all cases: in vivo
# NE [1] = experiment: Bone marrow NE activity after repeated dosing, BALB/c mice; settings: for Reduction of NE activity vs vehicle / Change From Vehicle Control (%) NE: 7 days
# Description: (§1) Briefly, animals were weighed and randomized into different treatment groups. In total, three different dosing levels of brensocatib were tested in each species and strain; each QD dosing level was equivalent to 1.5-times the matching daily BID dose. For BID dosing, the second daily dose was administered 8-h post the morning dose. C57BL/6 mice were dosed either BID or QD for 7 consecutive days at 0/0, 0.5/0.75, 2/3, and 20/30 mg/kg/day (BID/QD). BALB/c mice were dosed for 7 consecutive days at 0/0, 0.2/0.3, 2/3, and 20/30 mg/kg/day (BID/QD). SD rats were dosed for 9 consecutive days at 0/0, 0.2/0.3, 2/3, and 20/30 mg/kg/day (BID/QD). Wistar rats were dosed for 7 consecutive days at 0/0, 0.2/0.3, 2/3, and 20/30 mg/kg/day (BID/QD).
# (§2) At the completion of the study, animals were sacrificed 16–24 h post their final dose. The hind limb bones (femurs and tibias) were collected at necropsy for bone marrow analysis of NSP activities by kinetic enzymatic assays ([Basso et al., 2022]). See section Quantification of Bone Marrow NSP Activities for details.
# (§3) For the mice, each animal had the femurs and tibias of both hind limbs harvested. For the rat, the femur and tibia from a single hind limb per animal was harvested. Bones were kept on wet ice until processing for bone marrow collection. In brief, bone cutters were used to cut the epiphysis (knobby ends) off the long bones to expose the bone marrow filled cavity. Each bone cavity was then flushed with 5 mL/bone (mouse) or 10 mL/bone (rat) of ice-cold RPMI media through a […] and collected in a 50-mL conical tube. Cells were spun down at 2,500 × g at 4°C for 5 min and the supernatant was aspirated. After which, bone marrow cells were lysed with 1X red blood cell (RBC) lysis buffer (Abcam, ab204733) to eliminate contaminating RBCs and washed with PBS to remove any residual RBC lysis buffer. The resulting white blood cells (WBC) were subsequently lysed with 1% (v/v) Triton X-100 in PBS. Lysates were added to 96-well plates and stored at −80°C until NSP analyses.
# (§4) Bone marrow lysates prepared as described above were diluted and plated onto 96-well assay plates to quantify NSP activities as described previously ([Basso et al., 2022]). Briefly, peptide substrates for NE (N-Methoxysuccinyl-Ala-Ala-Pro-Val-7-amido-4-methylcoumarin; Sigma; St. Louis, MO; Excitation/Emission at 350/450 nm), PR3 ((7-Methoxycoumarin-4-yl)acetyl-lysyl-(picolinoyl)-Tyr-Asp-Ala-Lys-Gly-Asp-N-3-(2-4-dinitrophenyl)-2-3-diaminopropyonyl-NH2); GenScript; Piscataway, NJ; Excitation/Emission at 340/430 nm), and CatG (N-Succinyl-Ala-Ala-Pro-Phe p nitroanilide; Sigma; Absorbance at 405 nm) were added at a final assay concentration of 100 μM, 40 μM, and 200 μM, respectively, and either fluorescence or absorbance was quantified using a Synergy microplate reader (BioTek; Winooski, VT). The specific NSP activity in each sample was calculated as the total activity minus the activity in the presence of a specific NSP inhibitor (if used), including elastase inhibitor (Abcam) for NE, sivelestat (Abcam) for PR3, and cathepsin G inhibitor I (Cayman Chemical; Ann Arbor, MI) for CatG. NSP concentrations were interpolated based on their activities relative to the standard curves created using active human NE protein (Sigma), active human PR3 protein (Sigma), and active human CatG protein (Sigma), respectively. Due to unavailability of commercial mouse and/or rat NE, PR3, and CatG proteins, the corresponding human proteins were used instead since their catalytic ability is considered to be conserved across species. A portion of each cell lysate sample was retained for protein quantification using a Pierce™ BCA Protein Assay Kit (Thermo Fisher). The NSP activities were normalized for the cell lysate protein concentrations.
# (§5) The Pierce™ BCA Protein Assay Kit was used to measure the total protein of the samples after lysis to allow for subsequent normalization. […]
# NE [2] = experiment: Bone marrow NE activity after repeated dosing, Wistar rats; settings: for Reduction of NE activity vs vehicle / Change From Vehicle Control (%) NE: 7 days
# Description: as §1, §2, §3, §4, §5
# CatG [3] = experiment: Bone marrow CatG activity after repeated dosing, Wistar rats; settings: for Reduction of CatG activity vs vehicle / Change From Vehicle Control (%) CatG: 7 days
# Description: as §1, §2, §3, §4, §5
# CatG [4] = experiment: PD recovery study, bone marrow CatG activity, C57BL/6 mice; settings: for Percent change from vehicle CatG: bone marrow
# Description: A PD recovery study was performed in female C57BL/6 mice dosed BID for 8 consecutive days. Mice were dosed by oral gavage either with vehicle (0 mg/kg) or 5 mg/kg brensocatib (BID; 10 mg/kg/day). After 8 consecutive days of dosing, the animals were maintained without further treatment until prescribed sacrifice (days: 1, 3, 6, 8, and 10 days post final dose). Plasma was collected from animals during the first 24 h of dosing at −0.5 (half-hour prior to dosing), 1, 8, 9, and 24 h post initial dose. Note that the 8- and 24-h plasma samples were prior to the afternoon dose and prior to the second day dose, respectively. Plasma was used for PK analysis via LC-MS/MS. On prescribed days, animals were sacrificed, and the hind limb bones (femurs and tibias) were collected at necropsy for bone marrow analysis of NSP activities by kinetic enzymatic assays.
# as §3, §4
# The Pierce™ BCA Protein Assay Kit was used to measure the total protein of the samples after lysis to allow for subsequent normalization. The manufacturer’s instructions for use were followed when performing this assay on a portion of the sample lysates which were diluted in PBS, the same diluent as used for preparation of the standard. Plates were read on the Biotek Synergy plate reader with Gen5 software.
# [5] = BID highest dose (20 mg/kg/day)
# [6] = highest dose level 20/30 (BID/QD) mg/kg/day
# [7] = after 8 days of 5 mg/kg BID, curve fit with free min and max
structure (smiles),measurement,setting,value
Cn1c(=O)oc2ccc(-c3ccc(C[C@@H](C#N)NC(=O)[C@@H]4CNCCCO4)cc3)cc21 [brensocatib],Reduction of NE activity vs vehicle,NE [1]; [5],79%
same,Reduction of NE activity vs vehicle,NE [1]; QD highest dose (30 mg/kg/day),46%
same,"Combined BID and QD percentage reduction, NE",NE [1]; [6],62%
same,Change From Vehicle Control (%) NE,"NE [1]; oral BID 0.2 mg/kg/day, 16 h post final dose",+26% (p = 0.4425)
same,Change From Vehicle Control (%) NE,"NE [1]; oral BID 2 mg/kg/day, 16 h post final dose",−23% (p = 0.5256)
same,Change From Vehicle Control (%) NE,"NE [1]; oral BID 20 mg/kg/day, 16 h post final dose",−79% (p = 0.0008)
same,Change From Vehicle Control (%) NE,"NE [1]; oral QD 0.3 mg/kg/day, 24 h post final dose",−3% (p = 0.9990)
same,Change From Vehicle Control (%) NE,"NE [1]; oral QD 3 mg/kg/day, 24 h post final dose",−16% (p = 0.8297)
same,Change From Vehicle Control (%) NE,"NE [1]; oral QD 30 mg/kg/day, 24 h post final dose",−46% (p = 0.0959)
same,Reduction of NE activity vs vehicle,NE [2]; [5],19%
same,Reduction of NE activity vs vehicle,NE [2]; QD highest dose (30 mg/kg/day),19%
same,"Combined BID and QD percent reduction, NE",NE [2]; [6],19%
same,Change From Vehicle Control (%) NE,NE [2]; oral BID 0.2 mg/kg/day,−6% (p = 0.9661)
same,Change From Vehicle Control (%) NE,NE [2]; oral BID 2 mg/kg/day,−6% (p = 0.9676)
same,Change From Vehicle Control (%) NE,NE [2]; oral BID 20 mg/kg/day,−19% (p = 0.4767)
same,Change From Vehicle Control (%) NE,NE [2]; oral QD 0.3 mg/kg/day,+8% (p = 0.9636)
same,Change From Vehicle Control (%) NE,NE [2]; oral QD 3 mg/kg/day,+17% (p = 0.7823)
same,Change From Vehicle Control (%) NE,NE [2]; oral QD 30 mg/kg/day,−19% (p = 0.7283)
same,Reduction of CatG activity vs vehicle,CatG [3]; [5],32%
same,Reduction of CatG activity vs vehicle,CatG [3]; QD highest dose (30 mg/kg/day),41%
same,"Combined BID and QD percent reduction, CatG",CatG [3]; [6],37%
same,Change From Vehicle Control (%) CatG,CatG [3]; oral BID 0.2 mg/kg/day,−14% (p = 0.7146)
same,Change From Vehicle Control (%) CatG,CatG [3]; oral BID 2 mg/kg/day,−16% (p = 0.6392)
same,Change From Vehicle Control (%) CatG,CatG [3]; oral BID 20 mg/kg/day,−32% (p = 0.1106)
same,Change From Vehicle Control (%) CatG,CatG [3]; oral QD 0.3 mg/kg/day,+5% (p = 0.9843)
same,Change From Vehicle Control (%) CatG,CatG [3]; oral QD 3 mg/kg/day,−35% (p = 0.0605)
same,Change From Vehicle Control (%) CatG,CatG [3]; oral QD 30 mg/kg/day,−41% (p = 0.0202)
same,"Recovery: Time to reach 50% recovery, CatG",CatG [4]; [7],3.3 days
same,"Recovery: Time to reach 90% recovery, CatG",CatG [4]; [7],5.2 days
same,"Recovery: Time to reach 95% recovery, CatG",CatG [4]; [7],5.5 days
same,"Recovery: Time to reach 100% recovery, CatG",CatG [4]; [7],5.8 days
same,Percent change from vehicle CatG,CatG [4]; 1 day recovery after 8 days of 5 mg/kg BID,−93% (p < 0.0001)
same,Percent change from vehicle CatG,CatG [4]; 3 days recovery after 8 days of 5 mg/kg BID,−60% (p < 0.0001)
same,Percent change from vehicle CatG,CatG [4]; 6 days recovery after 8 days of 5 mg/kg BID,−14% (p = 0.2431)
same,Percent change from vehicle CatG,CatG [4]; 8 days recovery after 8 days of 5 mg/kg BID,+26% (p = 0.0133)
same,Percent change from vehicle CatG,CatG [4]; 10 days recovery after 8 days of 5 mg/kg BID,+38% (p < 0.0001)
